# ChEMBL document CHEMBL3259630, “Interkingdom pharmacology of Angiotensin-I converting enzyme inhibitor phosphonates produced by actinomycetes” (ACS Med Chem Lett, 2014)
# Key:
# [1] = biological target: T1, Angiotensin-converting enzyme (Homo sapiens, UniProt P12821); assay: Inhibition of ACE (unknown origin)
# [2] = biological target: T2, Angiotensin-converting enzyme (Oryctolagus cuniculus, UniProt P12822); assay: Inhibition of rabbit lung somatic ACE using FAPGG substrate
# T2 sequence (P12822 whole entry): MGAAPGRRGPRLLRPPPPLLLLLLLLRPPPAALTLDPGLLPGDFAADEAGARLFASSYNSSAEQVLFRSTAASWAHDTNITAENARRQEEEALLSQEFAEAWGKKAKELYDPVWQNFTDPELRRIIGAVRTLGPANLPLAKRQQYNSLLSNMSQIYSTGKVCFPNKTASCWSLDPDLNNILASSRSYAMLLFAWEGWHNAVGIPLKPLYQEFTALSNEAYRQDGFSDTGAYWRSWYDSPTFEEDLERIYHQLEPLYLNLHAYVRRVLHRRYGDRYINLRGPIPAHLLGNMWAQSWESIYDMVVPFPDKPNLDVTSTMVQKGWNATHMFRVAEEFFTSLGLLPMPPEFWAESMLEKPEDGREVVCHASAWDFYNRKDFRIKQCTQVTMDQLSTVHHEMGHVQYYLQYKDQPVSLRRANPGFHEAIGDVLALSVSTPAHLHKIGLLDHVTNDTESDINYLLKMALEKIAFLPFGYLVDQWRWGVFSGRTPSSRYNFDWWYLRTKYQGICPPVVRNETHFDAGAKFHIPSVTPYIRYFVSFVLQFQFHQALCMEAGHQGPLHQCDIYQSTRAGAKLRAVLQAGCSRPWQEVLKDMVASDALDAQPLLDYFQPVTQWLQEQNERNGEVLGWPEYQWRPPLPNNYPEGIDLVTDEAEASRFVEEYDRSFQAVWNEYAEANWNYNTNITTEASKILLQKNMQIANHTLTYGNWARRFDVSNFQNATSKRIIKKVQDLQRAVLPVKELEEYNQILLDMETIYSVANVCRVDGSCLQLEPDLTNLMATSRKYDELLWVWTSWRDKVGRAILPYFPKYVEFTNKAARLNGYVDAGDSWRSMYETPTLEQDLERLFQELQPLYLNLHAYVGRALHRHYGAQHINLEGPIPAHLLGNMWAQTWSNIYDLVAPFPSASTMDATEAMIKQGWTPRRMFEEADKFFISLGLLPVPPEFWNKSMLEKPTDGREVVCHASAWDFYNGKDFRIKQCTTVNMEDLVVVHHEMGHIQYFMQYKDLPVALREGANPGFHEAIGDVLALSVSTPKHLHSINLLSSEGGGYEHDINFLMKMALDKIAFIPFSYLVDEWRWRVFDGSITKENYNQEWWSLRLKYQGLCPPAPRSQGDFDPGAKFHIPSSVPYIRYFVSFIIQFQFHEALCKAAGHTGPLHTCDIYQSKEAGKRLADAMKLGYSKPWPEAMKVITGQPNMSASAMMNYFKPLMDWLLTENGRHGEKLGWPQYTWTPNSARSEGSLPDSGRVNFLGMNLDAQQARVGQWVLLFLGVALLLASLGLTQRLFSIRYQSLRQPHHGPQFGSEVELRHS
# [3] = biological target: T1, Angiotensin-converting enzyme; assay: Inhibition of human ACE C-terminal domain using Cbz-Phe-His-Leu-OH substrate
# [4] = biological target: T1, Angiotensin-converting enzyme; assay: Inhibition of human ACE N-terminal domain using Cbz-Phe-His-Leu-OH substrate
# [5] = Inhibition of Astrosporangium hypotensionis dicarboxypeptidase assessed as FAPGG substrate hydrolysis
# [6] = biological target: T3, Dipeptidyl carboxypeptidase (Escherichia coli (strain K12), UniProt P24171); assay: Inhibition of Escherichia coli dipeptidyl carboxypeptidase assessed as FAPGG substrate hydrolysis
# T3 sequence (P24171 whole entry): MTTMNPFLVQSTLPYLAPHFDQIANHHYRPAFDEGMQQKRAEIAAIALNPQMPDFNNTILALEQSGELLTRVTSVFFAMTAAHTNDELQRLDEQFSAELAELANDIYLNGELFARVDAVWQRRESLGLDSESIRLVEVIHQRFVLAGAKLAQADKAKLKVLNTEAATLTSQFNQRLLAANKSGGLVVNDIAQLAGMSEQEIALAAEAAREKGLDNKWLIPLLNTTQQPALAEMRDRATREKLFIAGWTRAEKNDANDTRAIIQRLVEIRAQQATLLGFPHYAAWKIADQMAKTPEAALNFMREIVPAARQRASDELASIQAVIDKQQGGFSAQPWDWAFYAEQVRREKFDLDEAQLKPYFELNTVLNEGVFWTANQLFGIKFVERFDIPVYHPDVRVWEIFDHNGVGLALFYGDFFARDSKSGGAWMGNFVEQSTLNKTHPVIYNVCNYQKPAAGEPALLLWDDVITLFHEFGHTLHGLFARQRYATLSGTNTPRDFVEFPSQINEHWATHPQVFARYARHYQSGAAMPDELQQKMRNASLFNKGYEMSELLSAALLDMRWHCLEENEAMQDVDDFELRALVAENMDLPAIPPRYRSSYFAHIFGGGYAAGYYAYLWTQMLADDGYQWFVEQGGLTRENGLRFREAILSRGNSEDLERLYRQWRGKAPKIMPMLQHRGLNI
# [7] = Inhibition of Schwanella oneidensis dipeptidyl carboxypeptidase assessed as FAPGG substrate hydrolysis
# T1 sequence (P12821 whole entry): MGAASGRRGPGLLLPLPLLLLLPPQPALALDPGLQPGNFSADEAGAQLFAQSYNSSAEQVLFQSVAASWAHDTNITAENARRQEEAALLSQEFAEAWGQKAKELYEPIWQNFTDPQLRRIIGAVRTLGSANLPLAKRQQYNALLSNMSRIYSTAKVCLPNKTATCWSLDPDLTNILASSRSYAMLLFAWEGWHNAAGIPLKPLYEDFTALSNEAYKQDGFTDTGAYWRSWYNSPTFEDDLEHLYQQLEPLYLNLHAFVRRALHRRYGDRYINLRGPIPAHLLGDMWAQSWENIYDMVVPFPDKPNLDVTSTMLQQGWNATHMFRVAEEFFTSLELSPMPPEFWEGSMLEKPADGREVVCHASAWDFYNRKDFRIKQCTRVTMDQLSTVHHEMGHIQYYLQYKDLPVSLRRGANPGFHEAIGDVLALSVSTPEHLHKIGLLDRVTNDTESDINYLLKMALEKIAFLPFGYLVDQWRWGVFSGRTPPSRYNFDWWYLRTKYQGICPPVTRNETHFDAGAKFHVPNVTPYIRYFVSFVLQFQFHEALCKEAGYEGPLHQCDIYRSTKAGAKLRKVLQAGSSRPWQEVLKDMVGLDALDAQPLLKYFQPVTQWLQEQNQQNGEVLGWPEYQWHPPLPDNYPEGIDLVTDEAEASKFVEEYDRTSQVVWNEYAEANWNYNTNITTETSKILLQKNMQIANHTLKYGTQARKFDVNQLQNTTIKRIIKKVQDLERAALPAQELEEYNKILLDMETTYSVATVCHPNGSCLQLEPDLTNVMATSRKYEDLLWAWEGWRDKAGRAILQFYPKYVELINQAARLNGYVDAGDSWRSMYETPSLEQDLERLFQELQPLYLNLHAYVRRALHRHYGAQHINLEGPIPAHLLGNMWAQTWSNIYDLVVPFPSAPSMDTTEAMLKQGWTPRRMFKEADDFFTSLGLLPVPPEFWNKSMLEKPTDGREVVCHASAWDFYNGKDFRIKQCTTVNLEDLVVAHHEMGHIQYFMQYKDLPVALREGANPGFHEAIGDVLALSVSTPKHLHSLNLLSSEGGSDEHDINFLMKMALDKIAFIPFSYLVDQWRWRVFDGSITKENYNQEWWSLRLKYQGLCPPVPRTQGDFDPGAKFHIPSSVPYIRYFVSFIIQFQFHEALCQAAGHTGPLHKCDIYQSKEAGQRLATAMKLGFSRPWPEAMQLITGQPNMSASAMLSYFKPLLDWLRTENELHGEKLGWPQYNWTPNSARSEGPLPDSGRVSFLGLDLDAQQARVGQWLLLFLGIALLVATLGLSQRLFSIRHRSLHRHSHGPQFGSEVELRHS
Structure (SMILES),IC50 [2] [nM],IC50 [3] [nM],IC50 [4] [nM],further results
N[C@@H](Cc1ccc(O)cc1)P(=O)(O)O,–,–,–,IC50 [1]: > 1000 nM
CN[C@H](C(=O)N[C@@H](Cc1ccc(O)cc1)C(=O)N[C@@H](Cc1ccc(O)cc1)P(=O)(O)O)C(C)C,140,54,52,–
CN[C@H](C(=O)N[C@@H](Cc1ccccc1)C(=O)N[C@@H](Cc1ccc(O)cc1)P(=O)(O)O)C(C)C,370,590,220,–
CC[C@H](C)[C@H](NC(C)=O)C(=O)N[C@@H](Cc1ccc(O)cc1)C(=O)N[C@@H](Cc1ccc(O)cc1)P(=O)(O)O,25,11,110,IC50 [5]: 40000 nM; IC50 [6]: 150000 nM; IC50 [7]: 11000 nM; Ki [3]: 11 nM; Ki [4]: 75 nM
CC[C@H](C)[C@H](NC(C)=O)C(=O)N[C@@H](Cc1ccccc1)C(=O)N[C@@H](Cc1ccc(O)cc1)P(=O)(O)O,35,–,–,–
CC[C@H](C)[C@H](NC(C)=O)C(=O)N[C@@H](CC(C)C)C(=O)N[C@@H](Cc1ccc(O)cc1)P(=O)(O)O,100,12,76,Ki [3]: 21 nM; Ki [4]: 33 nM
CC[C@H](C)[C@H](NC(C)=O)C(=O)N[C@@H](CCC(=O)O)C(=O)N[C@@H](Cc1ccc(O)cc1)P(=O)(O)O,5200,–,–,–
